Assay results: patent US5597823A, “Tricyclic substituted hexahydrobenz [e]isoindole alpha-1 adrenergic antagonists” (priority 1995, dated 1997)
Structures can show the parent of a compound that is named as a salt.

Target: T1, α-1A adrenoceptor (dog prostate) (Canis lupus, UniProt A0A8I3NK63)
T1 sequence (A0A8I3NK63 1-466): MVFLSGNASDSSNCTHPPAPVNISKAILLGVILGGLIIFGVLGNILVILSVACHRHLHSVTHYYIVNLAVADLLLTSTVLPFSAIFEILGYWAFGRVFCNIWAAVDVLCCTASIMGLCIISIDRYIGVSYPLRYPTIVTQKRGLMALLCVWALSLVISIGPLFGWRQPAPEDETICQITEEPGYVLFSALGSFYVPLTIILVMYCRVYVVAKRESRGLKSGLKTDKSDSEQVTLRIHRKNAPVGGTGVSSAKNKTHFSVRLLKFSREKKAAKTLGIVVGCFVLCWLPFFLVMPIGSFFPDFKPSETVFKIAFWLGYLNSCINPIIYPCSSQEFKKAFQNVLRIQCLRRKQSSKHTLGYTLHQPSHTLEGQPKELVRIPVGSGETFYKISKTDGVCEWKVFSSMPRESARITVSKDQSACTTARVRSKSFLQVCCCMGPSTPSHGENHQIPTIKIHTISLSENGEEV
Assay: Functional antagonism: phenylephrine (PE)-induced contraction of canine prostate strips
Format: cell-based
Conditions: Table 2b; vs phenylephrine; Schild plot
From the text: Functional assays indicative of pharmacologically defined α-1 adrenoceptors were used to further characterize compounds. Inhibition of phenylephrine (PE)-induced contraction of canine prostate smooth muscle can be correlated with α-1A adrenoceptor activation. […] For each of these models, agonist dose response curves were repeated against increasing concentrations of test agent to derive a Schild plot [log ([…]) against log (molarity of test agent)] to determine the pA2.
Canine prostate strips were used in vitro as previously described (Hieble, J. P., Boyce, A. J. and Caine, M., Fed. Proc., 45:2609-2614 (1986)), to determine antagonist potencies against phenylephrine-induced contractions.

Point of comparison: `COc1cccc2c1CC[C@H]1CN(CCn3c(=O)[nH]c4c(ccc5ncccc54)c3=O)C[C@@H]21` [Example 82, 3-[2-((3aR,9bR)cis-6-Methoxy-2,3,3a,4,5,9b-hexahydro-[1H]-benz[e]isoindol-1-yl)ethyl]-pyrido[2,3-h]quinazoline-2,4(1H,3H)-dione hydrochloride], “pA2 Dog Prostate [α-1A]” value 9.09. Against it:
- COc1cccc2c1CC[C@H]1CN(CCn3c(=O)[nH]c4c(sc5cccc(C#N)c54)c3=O)C[C@@H]21 [Example 54, 3-2-((3aR,9bR)-cis-6-Methoxy-2,3,3a,4,5,9b-hexahydro-[1H]-benz[e]isoindol-1-yl)ethyl]-[1]-9-cyano-benzothieno[3,2-d]pyrimidine-2,4(1H,3H)-dione hydrochloride] — lower, 8.74
- COc1cccc2c1CC[C@H]1CN(CCn3c(=O)[nH]c4c(sc5c(C#N)cccc54)c3=O)C[C@@H]21 [Example 55, 3-[2-((3aR,9bR)-cis-6-Methoxy-2,3,3a,4,5,9b-hexahydro-[1H]-benz[e]isoindol-1-yl)ethyl]-[1]-6-cyano-benzothieno[3,2-d]pyrimidine-2,4(1H,3H)-dione hydrochloride] — lower, 8.11
- COc1cccc2c1CC[C@H]1CN(CCn3c(=O)[nH]c4c(sc5c(Cl)cccc54)c3=O)C[C@@H]21 [Example 56, 3-[2-((3aR,9bR)-cis-6-Methoxy-2,3,3a,4,5,9b-hexahydro-[1H]-benz[e]isoindol-1-yl)ethyl]-[1]-6-chloro-benzothieno[3,2-d]pyrimidine-2,4(1H,3H)-dione hydrochloride] — lower, 7.11
- COc1cccc2c1CC[C@H]1CN(CCn3c(=O)[nH]c4c(sc5cc(Cl)ccc54)c3=O)C[C@@H]21 [Example 57, 3-[2-((3aR,9bR)-cis-6-Methoxy-2,3,3a,4,5,9b-hexahydro-[1H]-benz[e]isoindol-1-yl)ethyl]-[1]-7-chloro-benzothieno[3,2-d]pyrimidine-2,4(1H,3H)-dione hydrochloride] — lower, 7.43
- COc1cccc2c1CC[C@H]1CN(CCn3c(=O)c4sc5cccnc5c4n(C)c3=O)C[C@@H]21 [Example 61, dihydrochloride] — higher, 9.5
- COc1cccc2c1CC[C@H]1CN(CCn3c(=O)[nH]c4c(sc5c(Cl)ccnc54)c3=O)C[C@@H]21 [Example 63, 3-[2-((3aR,9bR)-cis-6-Methoxy-2,3,3a,4,5,9b-hexahydro-[1H]-benz[e]isoindol-1-yl)ethyl]-6-chloro-pyrido[2',3':4,5]thieno[3,2-d]pyrimidine-2,4(1H,3H)-dione dihydrochloride] — lower, 8.6
- COc1cccc2c1CC[C@H]1CN(CCn3c(=O)[nH]c4c(sc5c(OC)ccnc54)c3=O)C[C@@H]21 [Example 65, dihydrochloride] — lower, 8.75
- COc1cccc2c1CC[C@H]1CN(CCn3cnc4c([nH]c5ccccc54)c3=O)C[C@@H]21 [Example 66, 3-2-((3aR,9bR)-cis-6-Methoxy-2,3,3a,4,5,9b-hexahydro-[1H]-benz[e]isoindol-1-yl)ethyl]-1H-pyrimido[5,4-b]indole-4(1H,3H)-one hydrochloride] — higher, 9.71
- COc1cccc2c1CC[C@H]1CN(CCn3c(=O)[nH]c4c(sc5ccc(Cl)cc54)c3=O)C[C@@H]21 [Example 67, hydrochloride] — within 0.2 log units, 8.98
- COc1cc2sc3c(=O)n(CCN4C[C@@H]5CCc6c(OC)cccc6[C@@H]5C4)c(=O)[nH]c3c2cc1OC [Example 68, 3-[2-((3aR,9bR)-cis-6-Methoxy-2,3,3a,4,5,9b-hexahydro-[1H]-benz[e]isoindol-1-yl)ethyl]-[1]-7,8-dimethoxy-benzothieno[3,2-d]pyrimidine-2,4(1H,3H)-dionehydrochloride] — lower, 7.87
- COc1cccc2c1CC[C@H]1CN(CCN3CNc4c(sc5ncccc45)C3=O)C[C@@H]21 [Example 70, dihydrochloride] — lower, 8.57
- COc1cccc2c1CC[C@H]1CN(CCn3cnc4c(sc5nccnc54)c3=O)C[C@@H]21 [Example 71, 3-[2-(cis-(3.aR,9bR)-6-Methoxy-2,3 .,3a,4,5,9b-hexahydro-[1H]-benz[e]isoindol-1-yl)ethyl]-pyrazino[2',3':4,5]thieno[3,2-d]pyrimidine-4(1H,3H)-one hydrochloride] — within 0.2 log units, 9.21
- COc1cccc2c1CC[C@H]1CN(CCn3c(=O)[nH]c4c(sc5cccc(Cl)c54)c3=O)C[C@@H]21 [Example 72, 3-[2-((3aR,9bR)-cis-6-Methoxy-2,3,3a,4,5,9b-hexahydro-[1H]-benz[e]isoindol-1-yl)ethyl]-[1]-9-chloro-benzothieno[3,2-d]pyrimidine-2,4(1H,3H)-dione hydrochloride] — lower, 8.38
- COc1cccc2c1CC[C@H]1CN(CCn3c(=O)[nH]c4c(sc5cccc(OC)c54)c3=O)C[C@@H]21 [Example 73, 3-[2-((3aR,9bR)-cis-6-Methoxy-2,3,3a,4,5,9b-hexahydro-[1H]-benz[e]isoindol-1-yl)ethyl]-[1]-9-methoxy-benzothieno[3,2-d]pyrimidine-2,4(1H,3H)-dione hydrochloride] — lower, 8.42
- COc1cccc2c1CC[C@H]1CN(CCn3c(=O)[nH]c4c(sc5ccc(C)cc54)c3=O)C[C@@H]21 [Example 74, 3-[2,((3aR,9bR)-cis-6-Methoxy-2,3,3a,4,5,9b-hexahydro-[1H]-benz[e]isoindol-1-yl)ethyl]-[1]-8-methyl-benzothieno[3,2-d]pyrimidine-2,4(1H,3H)-dione hydrochloride] — lower, 8.7
- COc1cccc2c1CC[C@H]1CN(CCn3c(=O)[nH]c4c(oc5cccnc54)c3=O)C[C@@H]21 [Example 77, 3-[2-((3aR,9bR)-cis-6-Methoxy-2,3,3a,4,5,9b-hexahydro-[1H]-benz[e]yl)ethyl]-pyrido[2',3':4,5]furo[3,2-d]pyrimidine-2,4(1H3 H)-dione hydrochloride] — the same, 9.09
- COc1cccc2c1CC[C@@H]1CN(CCn3c(=O)[nH]c4c(sc5cccnc54)c3=O)C[C@H]21 [Example 78, dihydrochloride] — lower, 7.8
- COc1cccc2c1[C@@H]1CN(CCCCn3c(=O)[nH]c4c(sc5cccnc54)c3=O)C[C@@H]1CC2 [Example 79, dihydrochloride] — lower, 8.77
- COc1cccc2c1[C@@H]1CN(CCCCn3c(=O)[nH]c4c(sc5nccnc54)c3=O)C[C@@H]1CC2 [Example 80, hydrochloride] — lower, 8.08
- COc1cccc2c1CC[C@H]1CN(CCn3c(=O)[nH]c4c(ccc5cccnc54)c3=O)C[C@@H]21 [Example 83, hydrochloride] — lower, 8.43
- COc1cccc2c1CC[C@H]1CN(CCn3c(=O)[nH]c4c(ccc5cnccc54)c3=O)C[C@@H]21 [Example 84, hydrochloride] — within 0.2 log units, 8.99
- COc1cccc2c1CC[C@H]1CN(CCn3c(=O)[nH]c4c(sc5nc(-c6ccccc6)cnc54)c3=O)C[C@@H]21 [Example 91, hydrochloride] — lower, 6.66
- COc1cccc2c1CC[C@H]1CN(CCn3c(=O)[nH]c4c(sc5nc(C)cnc54)c3=O)C[C@@H]21 [Example 92, hydrochloride] — within 0.2 log units, 9.1
- COc1cccc2c1CC[C@H]1CN(CCn3c(=O)c4sc5nccnc5c4n(C)c3=O)C[C@@H]21 [Example 95, hydrochloride] — within 0.2 log units, 9.07
- COc1cccc2c1CC[C@H]1CN(CCn3c(=O)c4sc5nccnc5c4n(Cc4ccccc4)c3=O)C[C@@H]21 [Example 96, hydrochloride] — lower, 7.46
- COc1cccc2c1CC[C@H]1CN(CCn3c(=O)[nH]c4c([nH]c5ccncc54)c3=O)C[C@@H]21 [Example 97, hydrochloride] — higher, 9.66
- CCn1c(=O)n(CCN2C[C@@H]3CCc4c(OC)cccc4[C@@H]3C2)c(=O)c2sc3nccnc3c21 [Example 98, hydrochloride] — higher, 9.39
- COc1cccc2c1CC[C@H]1CN(CCn3c(=O)[nH]c4c(sc5ncc(-c6ccccc6)nc54)c3=O)C[C@@H]21 [Example 99, hydrochloride] — lower, 7.92
- COc1cccc2c1CC[C@H]1CN(CCn3c(=O)[nH]c4c(sc5nc(-c6ccccc6)c(-c6ccccc6)nc54)c3=O)C[C@@H]21 [Example 100, 3-[2-(cis-(3aR,9bR)-6-Methoxy-2,3,3a,4,5,9b-hexahydro-[1H]-benz[e]isoindol-1-yl)ethyl]-7,8-diphenylpyrazino[2',3':4,5]thieno[3,2-d]pyrimidine-2,4(1H,3H)-dione hydrochloride] — lower, 6.92
- CCCCn1c(=O)n(CCN2C[C@@H]3CCc4c(OC)cccc4[C@@H]3C2)c(=O)c2sc3nccnc3c21 [Example 101, hydrochloride] — lower, 7.31
- COc1cccc2c1CC[C@H]1CN(CCn3c(=O)[nH]c4c(sc5nc(C)c(C)nc54)c3=O)C[C@@H]21 [Example 103, hydrochloride] — higher, 9.43
